Key:
barnyardgrass [1] = assay: Test B pre-/postemergence herbicide test; format: in vivo, Echinochloa crus-galli; conditions: for Plant response rating, Barnyardgrass: preemergence; for Barnyardgrass plant response rating: postemergence, visual rating, scale 0 (no effect) to 100 (complete control)
Outline: (§1)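 Greenhouse pot assay with simultaneous preemergence (treated seed) and postemergence (2–18 cm seedlings) applications of surfactant-containing, non-phytotoxic solvent formulations. Response scored visually 13–15 days later on a 0–100 scale, 100 meaning complete control.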

Surinam grass = assay: Test B pre-/postemergence herbicide test; format: in vivo, Urochloa decumbens; conditions: for Plant response rating, Surinam Grass: preemergence; for Surinam Grass plant response rating: postemergence, visual rating, scale 0 (no effect) to 100 (complete control)
Outline: (§2)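 Test chemicals in a non-phytotoxic solvent mixture with surfactant were applied preemergence to seeded species and postemergence to plants 2-18 cm tall (1- to 4-leaf stage); rice and barnyardgrass were also tested in a flooded paddy at the 2-leaf stage. Visual rating versus controls after 13-15 days in greenhouse, scale 0 (no effect) to 100 (complete control).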

cocklebur = assay: Test B pre-/postemergence herbicide test; format: in vivo, Xanthium strumarium; conditions: for Plant response rating, Cocklebur: preemergence; for Cocklebur plant response rating: postemergence, visual rating, scale 0 (no effect) to 100 (complete control)
Outline: as §1

corn = assay: Test B pre-/postemergence herbicide test; format: in vivo, Zea mays; conditions: for Plant response rating, Corn: preemergence; for Corn plant response rating: postemergence, visual rating, scale 0 (no effect) to 100 (complete control)
Outline: as §2

large crabgrass = assay: Test B pre-/postemergence herbicide test; format: in vivo, Digitaria sanguinalis; conditions: for Plant response rating, Crabgrass, Large: preemergence; for Crabgrass, Large plant response rating: postemergence, visual rating, scale 0 (no effect) to 100 (complete control)
Outline: as §2

giant foxtail = assay: Test B pre-/postemergence herbicide test; format: in vivo, Setaria faberi; conditions: for Plant response rating, Foxtail, Giant: preemergence; for Foxtail, Giant plant response rating: postemergence, visual rating, scale 0 (no effect) to 100 (complete control)
Outline: as §2

lambsquarters = assay: Test B pre-/postemergence herbicide test; format: in vivo, Chenopodium album; conditions: for Plant response rating, Lambsquarters: preemergence; for Lambsquarters plant response rating: postemergence, visual rating, scale 0 (no effect) to 100 (complete control)
Outline: as §2

morningglory = assay: Test B pre-/postemergence herbicide test; format: in vivo, Ipomoea coccinea; conditions: for Plant response rating, Morningglory: preemergence; for Morningglory plant response rating: postemergence, visual rating, scale 0 (no effect) to 100 (complete control)
Outline: as §1

pigweed = assay: Test B pre-/postemergence herbicide test; format: in vivo, Amaranthus retroflexus; conditions: for Plant response rating, Pigweed: preemergence; for Pigweed plant response rating: postemergence, visual rating, scale 0 (no effect) to 100 (complete control)
Outline: as §2

velvetleaf = assay: Test B pre-/postemergence herbicide test; format: in vivo, Abutilon theophrasti; conditions: for Plant response rating, Velvetleaf: preemergence; for Velvetleaf plant response rating: postemergence, visual rating, scale 0 (no effect) to 100 (complete control)
Outline: as §2

blackgrass = assay: Test B postemergence herbicide test; format: in vivo, Alopecurus myosuroides; conditions: postemergence, visual rating, scale 0 (no effect) to 100 (complete control)
Outline: (§3)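 Greenhouse test; postemergence application to plants at 1–4 leaves (2–18 cm); paddy species at 2 leaves; evaluated visually vs controls at 13–15 days; scale 0–100 (100 = complete control).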

wheat = assay: Test B postemergence herbicide test; format: in vivo, Triticum aestivum; design: key to Wheat plant response rating: 0 = no effect, 100 = complete control; conditions: postemergence, visual rating, scale 0 (no effect) to 100 (complete control)
Outline: (§4)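 Each value is a visual 0–100 response rating taken against controls 13 to 15 days after treatment in the greenhouse. Plants received formulated chemical postemergence at the 1- to 4-leaf stage or, in flooded paddy, at the 2-leaf stage.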

wild oat = assay: Test B postemergence herbicide test; format: in vivo, Avena fatua; conditions: postemergence, visual rating, scale 0 (no effect) to 100 (complete control)
Outline: as §4

rice [2] = assay: Test B flooded paddy test; format: in vivo, Oryza sativa; conditions: 1000 g ai/ha, visual rating, scale 0 to 100 (0 no effect, 100 complete control), 13 to 15 days
Outline: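 Paddy species grown to the 2-leaf stage under flooding; blackgrass sprayed postemergence at 2–18 cm (1- to 4-leaf stage). Plants kept in a greenhouse for 13 to 15 days, then visually rated against controls on 0 (no effect) to 100 (complete control).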

[3] = test system: small flower umbrella sedge; assay: Test B flooded paddy test; format: in vivo, Cyperus difformis; conditions: 1000 g ai/ha, visual rating, scale 0 to 100 (0 no effect, 100 complete control), 13 to 15 days
Outline: as §3

ducksalad [4] = assay: Test B flooded paddy test; format: in vivo, Heteranthera limosa; conditions: 1000 g ai/ha, visual rating, scale 0 to 100 (0 no effect, 100 complete control), 13 to 15 days
Outline: as §3

barnyardgrass [5] = assay: Test B flooded paddy test; format: in vivo, Echinochloa crus-galli; conditions: 1000 g ai/ha, visual rating, scale 0 to 100 (0 no effect, 100 complete control), 13 to 15 days
Outline: as §3

rice [6] = assay: Test C flooded paddy test; format: in vivo, Oryza sativa
Method: (§5) At the same time, plants selected from these crop and weed species and also winter barley (Hordeum vulgare L.), blackgrass (Alopecurus myosuroides Huds.), canarygrass (Phalaris minor Retz.), chickweed (Stellaria media (L.) Vill.), downy bromegrass (Bromus tectorum L.), green foxtail (Setaria viridis (L.) Beauv.), Italian ryegrass (Lolium multiflorum Lam.), wheat (Triticum aestivum L.), wild oat (Avenafatua L.) and windgrass (Apera spica-venti (L.) Beauv.) were treated with postemergence applications of some of the test chemicals formulated in the same manner. Plants ranged in height from 2 to 18 cm (1- to 4-leaf stage) for postemergence treatments. Plant species in the flooded paddy test consisted of rice (Oryza sativa), smallflower umbrella sedge (Cyperus difformis L.), ducksalad (Heteranthera limosa (Sw.) Willd.) and barnyardgrass (Echinochloa crus-galli (L.) Beauv.) grown to the 2-leaf stage for testing. Treated plants and controls were maintained in a greenhouse for 12 to 14 days, after which time all species were compared to controls and visually evaluated. Plant response ratings, summarized in Table C, are based on a scale of 0 to 100 where 0 is no effect and 100 is complete control. A dash (-) response means no test result.

[7] = test system: smallflower umbrella sedge; assay: Test C flooded paddy test; format: in vivo, Cyperus difformis
Method: as §5

ducksalad [8] = assay: Test C flooded paddy test; format: in vivo, Heteranthera limosa
Method: as §5

barnyardgrass [9] = assay: Test C flooded paddy test; format: in vivo, Echinochloa crus-galli
Method: as §5

[10] = 500 g ai/ha, visual rating 0-100, 0 no effect, 100 complete control
[11] = 125 g ai/ha, 0 to 100 scale, 0 is no effect, 100 is complete control
[12] = 62 g ai/ha, scale 0 to 100 (0 no effect, 100 complete control)
[13] = 125 g ai/ha, scale 0 to 100 (0 no effect, 100 complete control)
[14] = 250 g ai/ha, scale of 0 to 100, 0 is no effect, 100 is complete control
[15] = 500 g ai/ha, visual rating after 12 to 14 days, scale 0 to 100 (0 no effect, 100 complete control)

CC(=O)c1cccc(NC(=O)c2cc(C(C)(C)C)nn2CC(F)(F)F)c1 [Compound 126]
60: Plant response rating, Barnyardgrass (barnyardgrass [1]; [10]) | Lambsquarters plant response rating (lambsquarters; 500 g ai/ha)
0: Barnyardgrass plant response rating (barnyardgrass [1]; 125 g ai/ha) | Plant response rating, Surinam Grass (Surinam grass; [11]) | Plant response rating, Cocklebur (cocklebur; [10]) | Plant response rating, Cocklebur (cocklebur; [11]) | Plant response rating, Corn (corn; [10]) | Corn plant response rating (corn; 125 g ai/ha) | Plant response rating, Corn (corn; [11]) | Plant response rating, Crabgrass, Large (large crabgrass; [11]) | Plant response rating, Foxtail, Giant (giant foxtail; [10]) | Plant response rating, Foxtail, Giant (giant foxtail; [11]) | Lambsquarters plant response rating (lambsquarters; 125 g ai/ha) | Plant response rating, Lambsquarters (lambsquarters; [11]) | Morningglory plant response rating (morningglory; 125 g ai/ha) | Plant response rating, Morningglory (morningglory; [11]) | Plant response rating, Pigweed (pigweed; [11]) | Velvetleaf plant response rating (velvetleaf; 125 g ai/ha) | Plant response rating, Velvetleaf (velvetleaf; [11]) | Blackgrass plant response rating (blackgrass; 125 g ai/ha) | Blackgrass plant response rating (blackgrass; 500 g ai/ha) | Wheat plant response rating (wheat; 125 g ai/ha) | Wheat plant response rating (wheat; 500 g ai/ha) | Rice plant response rating (rice [6]; [12]) | Rice plant response rating (rice [6]; [13]) | Rice plant response rating (rice [6]; [14]) | Plant response rating, Rice (rice [6]; [15]) | Sedge, Umbrella plant response rating [7, 12] | Ducksalad plant response rating (ducksalad [8]; [12]) | Barnyardgrass plant response rating (barnyardgrass [9]; [12]) | Barnyardgrass plant response rating (barnyardgrass [9]; 125 g ai/ha, scale of 0 to 100, 0 is no effect, 100 is complete control)
90: Plant response rating, Lambsquarters (lambsquarters; [10])
20: Plant response rating, Surinam Grass (Surinam grass; [10]) | Surinam Grass plant response rating (Surinam grass; 125 g ai/ha) | Surinam Grass plant response rating (Surinam grass; 500 g ai/ha) | Corn plant response rating (corn; 500 g ai/ha) | Foxtail, Giant plant response rating (giant foxtail; 125 g ai/ha) | Plant response rating, Morningglory (morningglory; [10]) | Plant response rating, Velvetleaf (velvetleaf; [10]) | Rice plant response rating (rice [2]) | Sedge, Umbrella plant response rating [7, 13] | Sedge, Umbrella plant response rating [7, 14] | Barnyardgrass plant response rating (barnyardgrass [9]; [14])
100: Cocklebur plant response rating (cocklebur; 500 g ai/ha)
70: Plant response rating, Pigweed (pigweed; [10])
50: Cocklebur plant response rating (cocklebur; 125 g ai/ha) | Oat, Wild plant response rating (wild oat; 500 g ai/ha) | Plant response rating, Sedge, Umbrella [7, 15]
10: Barnyardgrass plant response rating (barnyardgrass [5]) | Ducksalad plant response rating (ducksalad [8]; [13])
25: Ducksalad plant response rating (ducksalad [8]; [14]) | Plant response rating, Barnyardgrass (barnyardgrass [9]; [15])
30: Barnyardgrass plant response rating (barnyardgrass [1]; 500 g ai/ha) | Plant response rating, Crabgrass, Large (large crabgrass; [10]) | Foxtail, Giant plant response rating (giant foxtail; 500 g ai/ha) | Morningglory plant response rating (morningglory; 500 g ai/ha) | Oat, Wild plant response rating (wild oat; 125 g ai/ha) | Plant response rating, Ducksalad (ducksalad [8]; [15])
40: Plant response rating, Barnyardgrass (barnyardgrass [1]; [11]) | Crabgrass, Large plant response rating (large crabgrass; 125 g ai/ha) | Crabgrass, Large plant response rating (large crabgrass; 500 g ai/ha) | Pigweed plant response rating (pigweed; 125 g ai/ha) | Pigweed plant response rating (pigweed; 500 g ai/ha) | Velvetleaf plant response rating (velvetleaf; 500 g ai/ha)
80: Sedge, Umbrella plant response rating [3] | Ducksalad plant response rating (ducksalad [4])

Source: patent publication US20060069132A1, “Azolecarboxamide herbicides” (priority 2004, published 2006)
